Measured values: ChEMBL document CHEMBL1136058, “4-Anilino-3-cyanobenzo[g]quinolines as kinase inhibitors” (Bioorg Med Chem Lett, 2002)
Each block holds one compound with its values, some of them ahead of it.

Columns and labels:
[1] = target: T1, Proto-oncogene tyrosine-protein kinase Src (Homo sapiens, UniProt P12931); assay: Inhibition of Src protein tyrosine kinase at 0.1 uM
[2] = target: T1, Proto-oncogene tyrosine-protein kinase Src; assay: Inhibition of Src protein tyrosine kinase at 0.01 uM
LoVo = assay: Inhibition of LOVO cell proliferation; conditions: Homo sapiens
[3] = target: Dual specificity mitogen-activated protein kinase kinase 1 (Homo sapiens, UniProt Q02750); assay: Inhibition of Dual specificity mitogen-activated protein kinase kinase (MEK-1)
[4] = target: Epidermal growth factor receptor (Homo sapiens, UniProt P00533); assay: Inhibition of epidermal growth factor receptor (EGFR)
SW-620 = assay: Inhibition of SW620 cell proliferation; conditions: Homo sapiens
[5] = target: T1, Proto-oncogene tyrosine-protein kinase Src

T1 sequence (P12931 2-536 limits assumed): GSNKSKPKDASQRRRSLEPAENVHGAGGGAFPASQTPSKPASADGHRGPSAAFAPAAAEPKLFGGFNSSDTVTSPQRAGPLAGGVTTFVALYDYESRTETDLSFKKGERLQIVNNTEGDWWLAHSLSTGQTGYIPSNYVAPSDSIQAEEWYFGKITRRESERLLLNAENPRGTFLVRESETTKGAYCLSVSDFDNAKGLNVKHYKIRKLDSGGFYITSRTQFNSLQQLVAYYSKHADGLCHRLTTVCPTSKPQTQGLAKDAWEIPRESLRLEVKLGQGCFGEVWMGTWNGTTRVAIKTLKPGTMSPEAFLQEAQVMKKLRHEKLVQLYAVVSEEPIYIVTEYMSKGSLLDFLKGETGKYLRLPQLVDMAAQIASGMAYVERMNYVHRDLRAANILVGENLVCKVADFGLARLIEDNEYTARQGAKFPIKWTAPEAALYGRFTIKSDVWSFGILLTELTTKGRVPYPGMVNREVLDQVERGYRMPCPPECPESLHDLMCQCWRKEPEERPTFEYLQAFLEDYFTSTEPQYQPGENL
Chain of Epidermal growth factor receptor (P00533 whole entry): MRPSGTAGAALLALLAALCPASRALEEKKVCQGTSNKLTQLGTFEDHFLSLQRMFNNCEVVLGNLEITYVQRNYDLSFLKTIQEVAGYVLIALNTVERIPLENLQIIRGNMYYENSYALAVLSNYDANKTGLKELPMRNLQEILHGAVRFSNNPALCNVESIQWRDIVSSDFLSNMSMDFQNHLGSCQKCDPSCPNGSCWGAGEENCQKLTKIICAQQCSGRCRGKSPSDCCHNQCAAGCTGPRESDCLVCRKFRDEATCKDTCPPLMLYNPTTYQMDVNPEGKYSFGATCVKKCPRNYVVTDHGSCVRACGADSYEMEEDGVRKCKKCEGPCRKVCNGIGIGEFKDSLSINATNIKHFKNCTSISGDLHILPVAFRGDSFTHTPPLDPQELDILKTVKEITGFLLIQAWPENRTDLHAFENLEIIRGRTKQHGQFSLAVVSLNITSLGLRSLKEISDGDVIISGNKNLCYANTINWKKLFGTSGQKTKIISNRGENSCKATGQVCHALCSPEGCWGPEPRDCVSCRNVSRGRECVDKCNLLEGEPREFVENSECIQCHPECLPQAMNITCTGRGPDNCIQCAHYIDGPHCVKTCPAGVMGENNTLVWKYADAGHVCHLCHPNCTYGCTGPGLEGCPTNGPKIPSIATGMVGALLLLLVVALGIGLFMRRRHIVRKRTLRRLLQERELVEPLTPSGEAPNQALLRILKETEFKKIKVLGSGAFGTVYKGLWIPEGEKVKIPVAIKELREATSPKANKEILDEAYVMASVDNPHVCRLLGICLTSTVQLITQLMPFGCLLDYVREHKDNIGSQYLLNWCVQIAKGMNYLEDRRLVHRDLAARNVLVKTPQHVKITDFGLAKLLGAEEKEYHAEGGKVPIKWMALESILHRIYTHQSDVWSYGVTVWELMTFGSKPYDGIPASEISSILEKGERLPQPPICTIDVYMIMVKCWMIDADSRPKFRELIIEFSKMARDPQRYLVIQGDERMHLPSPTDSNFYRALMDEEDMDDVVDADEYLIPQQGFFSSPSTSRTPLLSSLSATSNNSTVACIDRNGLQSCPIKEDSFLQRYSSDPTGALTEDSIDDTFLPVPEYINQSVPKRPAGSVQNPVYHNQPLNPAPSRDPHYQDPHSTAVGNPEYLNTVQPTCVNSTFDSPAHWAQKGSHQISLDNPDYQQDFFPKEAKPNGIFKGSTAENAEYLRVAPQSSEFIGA
Chain of Dual specificity mitogen-activated protein kinase kinase 1 (Q02750 whole entry): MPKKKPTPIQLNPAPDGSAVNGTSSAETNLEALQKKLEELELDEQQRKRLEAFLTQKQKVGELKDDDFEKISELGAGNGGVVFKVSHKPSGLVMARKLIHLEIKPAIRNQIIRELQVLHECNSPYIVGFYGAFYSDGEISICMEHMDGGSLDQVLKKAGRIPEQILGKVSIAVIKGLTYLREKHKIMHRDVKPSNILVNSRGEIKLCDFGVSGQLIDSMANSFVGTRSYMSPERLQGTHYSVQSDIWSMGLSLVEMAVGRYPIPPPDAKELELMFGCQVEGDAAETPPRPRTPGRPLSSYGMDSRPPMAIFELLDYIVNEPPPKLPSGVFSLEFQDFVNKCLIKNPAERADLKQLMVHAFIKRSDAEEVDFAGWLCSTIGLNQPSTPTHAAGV

SMILES: COc1cc2cc3ncc(C#N)c(Nc4ccc(Oc5ccccc5)cc4)c3cc2cc1OC
IC50 (LoVo): 670 nM
IC50 [3]: 10 nM

SMILES: COc1cc2cc3ncc(C#N)c(Nc4ccc(F)c(Cl)c4)c3cc2cc1OC
IC50 [4]: 18000 nM
IC50 (SW-620): 1990 nM

SMILES: COc1cc2ncc(C#N)c(Nc3ccc(Cl)cc3Cl)c2cc1OC
IC50 [5]: 38 nM

More lines, now with the values ahead:

inhibition [1]: 30%
SMILES: COc1ccc2cc3c(Nc4ccc(Cl)cc4Cl)c(C#N)cnc3cc2c1

inhibition [2]: 10%
SMILES: N#Cc1cnc2cc3cc(O)c(O)cc3cc2c1Nc1ccc(Cl)cc1Cl

inhibition [1]: 30%
SMILES: COc1ccc2cc3ncc(C#N)c(Nc4ccc(Cl)cc4Cl)c3cc2c1
